Data: ChEMBL document CHEMBL3407417 (J Med Chem, 2015)
Values after ≈ are worked out from the molar mass of the structure shown.

Key:
[1] = tested on: A549; test: cells; conditions: Homo sapiens, A549, 72 h
[2] = Thermodynamic solubility of the compound in buffer containing 20 mmol/L of sodium taurocholate at pH 6.8; format: physicochemical; conditions: buffer containing 20 mmol/L sodium taurocholate, read-out: Therm_solubility
[3] = Plasma clearance in Sprague-Dawley rat at 0.5 mg/kg, iv; format: ADME, organism-based; parameters: dose 0.5 mg/kg, route intravenous
[4] = Volume of distribution at steady state in Sprague-Dawley rat at 0.5 mg/kg, iv; format: ADME, organism-based; parameters: dose 0.5 mg/kg, route intravenous; conditions: in vivo, read-out: Vdss
[5] = Stability in rat liver microsomes assessed as compound remaining after 30 mins; format: ADME; conditions: read-out: Stability
[6] = Oral bioavailability in Sprague-Dawley rat at 1 mg/kg; format: ADME, organism-based; conditions: in vivo
[7] = Cmax in Sprague-Dawley rat at 1 mg/kg, po; format: ADME, organism-based; parameters: dose 1 mg/kg, route oral; conditions: in vivo
[8] = AUC in Sprague-Dawley rat at 1 mg/kg, po; format: ADME, organism-based; parameters: dose 1 mg/kg, route oral; conditions: plasma
[9] = Tmax in BALB/c AJcl-nu/nu mouse at 100 mg/kg, po; format: ADME, organism-based; parameters: dose 100 mg/kg, route oral; conditions: in vivo
[10] = AUC in BALB/c AJcl-nu/nu mouse at 10 mg/kg, po; format: ADME, organism-based; parameters: dose 10 mg/kg, route oral; conditions: plasma
[11] = tested on: Plasma; test: Fraction unbound in rat plasma; format: ADME, cell-free
[12] = Cmax in BALB/c AJcl-nu/nu mouse at 100 mg/kg, po; format: ADME, organism-based; parameters: dose 100 mg/kg, route oral; conditions: in vivo
[13] = tested on: Mus musculus; test: Toxicity in human NCI-H460 cells xenografted nude mouse assessed as body weight loss at 5 mg/kg, po qd for 2 weeks relative to control; format: organism-based; parameters: dose 5 mg/kg, route oral; conditions: in vivo, 336 h
[14] = Tmax in BALB/c AJcl-nu/nu mouse at 10 mg/kg, po; format: ADME, organism-based; parameters: dose 10 mg/kg, route oral; conditions: in vivo
[15] = tested on: Mus musculus; test: Toxicity in human NCI-H460 cells xenografted nude mouse assessed as body weight loss at 2.5 mg/kg, po qd for 2 weeks relative to control; format: organism-based; parameters: dose 2.5 mg/kg, route oral; conditions: in vivo, 336 h
[16] = AUC in BALB/c AJcl-nu/nu mouse at 100 mg/kg, po; format: ADME, organism-based; parameters: dose 100 mg/kg, route oral; conditions: plasma
[17] = Cmax in BALB/c AJcl-nu/nu mouse at 10 mg/kg, po; format: ADME, organism-based; parameters: dose 10 mg/kg, route oral; conditions: in vivo
[18] = tested on: NCI-H460; test: Antitumor activity against human NCI-H460 cells xenografted in nude mouse assessed as tumor growth inhibition at 5 mg/kg, po qd for 2 weeks relative to control; format: functional
[19] = tested on: Mus musculus; test: Toxicity in human NCI-H460 cells xenografted nude mouse assessed as body weight loss at 10 mg/kg, po qd for 2 weeks relative to control; format: organism-based; parameters: dose 10 mg/kg, route oral; conditions: in vivo, 336 h
[20] = tested on: NCI-H460; test: Antitumor activity against human NCI-H460 cells xenografted in nude mouse assessed as tumor growth inhibition at 10 mg/kg, po qd for 2 weeks relative to control; format: functional
[21] = tested on: NCI-H460; test: Antitumor activity against human NCI-H460 cells xenografted in nude mouse assessed as tumor growth inhibition at 2.5 mg/kg, po qd for 2 weeks relative to control; format: functional
[22] = tested on: Mus musculus; test: Toxicity in human NCI-H460 cells xenografted nude mouse assessed as mortality at 5 to 10 mg/kg, po qd for 2 weeks relative to control; format: organism-based; parameters: dose 5-10 mg/kg, route oral; conditions: in vivo, 336 h
[23] = cells; conditions: Homo sapiens, MKN-45, 72 h
Description: Antiproliferative activity against human MKN45 cells after 72 hrs by WST8 assay

[24] = cells; conditions: Homo sapiens, HCT-15, 72 h
Description: Antiproliferative activity against human HCT15 cells after 72 hrs by WST8 assay

[25] = cells; conditions: Homo sapiens, GSS, 72 h
Description: Antiproliferative activity against human GSS cells after 72 hrs by WST8 assay

[26] = cells; conditions: Homo sapiens, LU-99A, 72 h
Description: Antiproliferative activity against human LU99A cells after 72 hrs by WST8 assay

[27] = tested on: NCI-H358; test: Antiproliferative activity against human NCI-H358 cells after 72 hrs by WST8 assay; format: functional, cell-based; conditions: NCI-H358, 72 h
[28] = cells; conditions: Homo sapiens, MIA PaCa-2, 72 h
Description: Antiproliferative activity against human MIAPaCa2 cells after 72 hrs by WST8 assay

[29] = cells; conditions: Homo sapiens, HL-60, 72 h
Description: Antiproliferative activity against human HL60 cells after 72 hrs by WST8 assay

[30] = cells; conditions: Homo sapiens, HCT-116, 72 h
Description: Antiproliferative activity against human HCT116 cells after 72 hrs by WST8 assay

[31] = cells; conditions: Homo sapiens, PC-14, 72 h
Description: Antiproliferative activity against human PC14 cells after 72 hrs by WST8 assay

[32] = cells; conditions: Homo sapiens, LC-2-ad, 72 h
Description: Antiproliferative activity against human LC2/ad cells after 72 hrs by WST8 assay

[33] = tested on: HT-29; test: cells; conditions: Homo sapiens, HT-29, 72 h
Description: Antiproliferative activity against human HT-29 cells after 72 hrs by WST8 assay

[34] = cells; conditions: Homo sapiens, Lu116, 72 h
Description: Antiproliferative activity against human Lu116 cells after 72 hrs by WST8 assay

[35] = tested on: MRC5; test: Antiproliferative activity against human MRC5 cells after 72 hrs by WST8 assay; format: cell-based; conditions: MRC5, 72 h
[36] = tested on: NCI-H460; test: cells; conditions: Homo sapiens, NCI-H460, 72 h
Description: Antiproliferative activity against human NCI-H460 cells after 72 hrs by WST8 assay

| SMILES | solubility thermodynamic [2] | clearance [3] | Vd [4] | remaining at 0.5 h [5] | bioavailability [6] | Cmax [7] | AUC [8] | also measured |
| --- | --- | --- | --- | --- | --- | --- | --- | --- |
| O=C(NC1CC1)c1ccc(-c2cnc3c(NCC4CCOCC4)nccn23)cc1 |  |  |  |  |  |  |  | IC50 [1]: 1500 nM |
| N#Cc1ccc(-c2cn3c(-c4ccc(C(=O)NC5CC5)cc4)cnc3c(NCC3CCOCC3)n2)cc1 | 1 µg/mL (≈ 2.03 µM) | 145 mL/min/kg | 5 L/kg | 0% | 0% |  |  |  |
| N#Cc1ccc(-c2cc(NCC3CCOCC3)c3ncc(-c4ccc(C(=O)NC5CC5)cc4)n3n2)cc1 | 0.49 µg/mL (≈ 0.995 µM) | 38 mL/min/kg | 4.2 L/kg | 42% | 0% |  |  |  |
| N#Cc1ccc(-c2cc(NCC3CCOCC3)c3ncc(-c4ccc(C(=O)NC5CC5)cc4)n3n2)c(N)c1 | 2.6 µg/mL (≈ 5.12 µM) | 23 mL/min/kg | 2 L/kg | 59% | 0% |  |  |  |
| O=C(NC1CC1)c1ccc(-c2cnc3c(NCC4CCOCC4)cc(OC4CCCCC4)nn23)cc1 | 10 µg/mL (≈ 20.4 µM) | 8.7 mL/min/kg | 1.6 L/kg | 55% | 23% | 33 ng/mL | 439 ng·h/mL |  |
| O=C(NC1CC1)c1ccc(-c2cnc3c(NCC4CCOCC4)cc(Oc4ccccc4F)nn23)cc1 | 8 µg/mL (≈ 16 µM) | 22 mL/min/kg | 2 L/kg | 39% | 16% | 16 ng/mL | 126 ng·h/mL |  |
| O=C(NC1CC1)c1ccc(-c2cnc3c(NCC4CCOCC4)cc(Oc4ccccc4O)nn23)cc1 | 1.3 µg/mL (≈ 2.6 µM) | 78 mL/min/kg | 2.2 L/kg | 21% | 0% |  |  |  |
| CC(C)(C)Nc1cc(NCC2CCOCC2)c2ncc(-c3ccc(C(=O)NC4CC4)cc3)n2n1 | 63 µg/mL (≈ 136 µM) | 16 mL/min/kg | 1.7 L/kg | 59% | 36% | 50 ng/mL | 377 ng·h/mL |  |
| CC(C)(Nc1cc(NCC2CCOCC2)c2ncc(-c3ccc(C(=O)NC4CC4)cc3)n2n1)C(F)(F)F | 29 µg/mL (≈ 56.1 µM) | 11 mL/min/kg | 1.3 L/kg | 41% | 24% | 38 ng/mL | 360 ng·h/mL | Tmax [9]: 60 min; AUC [10]: 8000 ng·h/mL; Fu [11]: 0.51%; Cmax [12]: 14000 ng/mL; Activity [13]: 25%; Tmax [14]: 30 min; Activity [15]: Non-toxic; AUC [16]: 48500 ng·h/mL; Cmax [17]: 2430 ng/mL; T/C [18]: 40%; Activity [19]: 32%; T/C [20]: 19%; T/C [21]: 57%; Activity [22]: Toxic |
| COc1cc(Nc2ncc3c(n2)-c2ccc(Cl)cc2C(c2c(F)cccc2OC)=NC3)ccc1C(=O)O [ALISERTIB] |  |  |  |  |  |  |  | IC50 [23]: 93 nM; IC50 [24]: 740 nM; IC50 [25]: 39 nM; IC50 [26]: 62 nM; IC50 [27]: 100 nM; IC50 [28]: 130 nM; IC50 [29]: 74 nM; IC50 [30]: 95 nM; IC50 [31]: 170 nM; IC50 [32]: 77 nM; IC50 [33]: 330 nM; IC50 [34]: 97 nM; IC50 [35]: > 10000 nM |
| CC(=O)O[C@H]1C(=O)[C@@]2(C)[C@H]([C@H](OC(=O)c3ccccc3)[C@]3(O)C[C@H](OC(=O)[C@H](O)[C@@H](NC(=O)c4ccccc4)c4ccccc4)C(C)=C1C3(C)C)[C@]1(OC(C)=O)CO[C@@H]1C[C@@H]2O [PACLITAXEL] |  |  |  |  |  |  |  | IC50 [23]: 4 nM; IC50 [24]: 240 nM; IC50 [25]: 3.4 nM; IC50 [26]: 5.2 nM; IC50 [36]: 10 nM; IC50 [27]: 7.9 nM; IC50 [28]: 6.1 nM; IC50 [29]: 7.9 nM; IC50 [30]: 6.1 nM; IC50 [31]: 4.4 nM; IC50 [32]: 2.5 nM; IC50 [33]: 7 nM; IC50 [34]: 5.1 nM; IC50 [35]: 80 nM |
